16 molecules from patent US8222263B2, “Inhibitors of hedgehog pathway” (Exelixis Patent Company LLC, priority 2007, dated 2012) can be followed below.

The subject of this test is Gli-luciferase (firefly) reporter in SHh Light II cell line (NIH-3T3), Hedgehog pathway. The test can be described thus: Light II Assay (SHh-Smo cell-based Gli-luciferase reporter assay). Particulars: rSHh stimulated cells, 24 hours, % inhibition of luciferase signal. On the procedure: The SHh-Smo assay is a cell-based reporter assay in the SHh Light II cell line (NIH-3T3), available through the American Tissue Culture Center (ATCC). […] In addition, this cell line contains a constitutively expressed renilla luciferase reporter (via CMV promoter) which can be used as a readout to detect any non-specific compound effects, including cytotoxicity.
Test compounds were serially diluted in DMSO and 1.5 μL aliquots were transferred to 384-well non-binding plates. Compounds were diluted with 85 μL of assay media (DMEM+0.5% FBS, 5 mM Hepes, 1% NEAA, 1% PenStrep, 0.8% Geneticin). Cell plates were prepared by adding 50 μL of assay media (240 cells/μL) to white TC coated 384-well plates (final cell concentration is 12,000 cells/well). Cell plates were incubated overnight at 37° C.
Media was removed from the cell plates and 30 μL of compound in assay media+rSHh (1.5 μg/well) was added to the cell plates. Plates were incubated at 37° C. for 24 hours. Following overnight incubation, media was aspirated from the cell plates and 20 μL of luciferase media (Bright-glo, Promega) was added to the cell. Cells were incubated for 5 minutes and measured on an Envision™ plate reader (Perkn Elmer) using the luciferase detection protocol. IC50 values were calculated as a percentage inhibition of luciferase signal from rSHh stimulated cells compared to unstimulated cells.
In general terms: In a reporter assay the amount or activity of a reporter protein is the signal.

For orientation: IC50 means the concentration needed to halve the response being measured. Higher therefore signals weaker potency in that assay. `Cc1ccc(CN2CCOCC2)cc1NC(=O)c1ccc(Nc2nc(-c3ccccc3)c3ccccc3n2)c(F)c1` [3-fluoro-N-[2-methyl-5-(morpholin-4-ylmethyl)phenyl]-4-[(4-phenylquinazolin-2-yl)amino]benzamide] returned an IC50 of 6.2 nM.

`Cc1cccc(C)c1NC(=O)c1ccc(Nc2nc(C3CC3)c3ccccc3n2)cc1` [4-[(4-cyclopropylquinazolin-2-yl)amino]-N-(2,6-dimethylphenyl)benzamide] showed an IC50 of 2.8 nM.

Take `O=C(c1ccccc1)N1CCC(Nc2nc(-c3ccccc3)c3ccccc3n2)CC1` [4-phenyl-N-[1-(phenylcarbonyl)piperidin-4-yl]quinazolin-2-amine]: 68.4 nM corresponded to half-maximal inhibition (IC50). Compared with the last molecule, the IC50 is about 24-fold higher.

`Cc1ccc(CN2CCOCC2)cc1NC(=O)c1ccc(Nc2nc(C(C)C)c3ccccc3n2)cc1` [4-{[4-(1-methylethyl)quinazolin-2-yl]amino}-N-[2-methyl-5-(morpholin-4-ylmethyl)phenyl]benzamide] showed a half-maximal inhibitory concentration (IC50) of 17.8 nM.

The molecule `Cc1cccc(C)c1NC(=O)c1cc(Nc2nc(-c3ccccc3)c3ccccc3n2)c(Cl)s1` [5-chloro-N-(2,6-dimethylphenyl)-4-[(4-phenylquinazolin-2-yl)amino]thiophene-2-carboxamide] showed an IC50 of 166 nM.

`Cc1cccc(C)c1NC(=O)c1ccc(Nc2nc3c(c(-c4ccccc4)n2)CCC3)cc1` [N-(2,6-dimethylphenyl)-4-[(4-phenyl-6,7-dihydro-5H-cyclopenta[d]pyrimidin-2-yl)amino]benzamide] displayed an IC50 of 25.8 nM. Compared with the last molecule, the IC50 is about 6.4-fold lower.

As to `Cc1cccc(C)c1NC(=O)c1ccc(Nc2nc(-c3ccccc3)c3cccnc3n2)cc1` [N-(2,6-dimethylphenyl)-4-[(4-phenylpyrido[2,3-d]pyrimidin-2-yl)amino]benzamide], the IC50 was found to be 3.6 nM.

`Cc1cccc(C)c1NC(=O)c1ccc(Nc2nc3c(c(-c4ccccc4)n2)CN(Cc2ccccc2)CC3)cc1` [N-(2,6-dimethylphenyl)-4-{[4-phenyl-6-(phenylmethyl)-5,6,7,8-tetrahydropyrido[4,3-d]pyrimidin-2-yl]amino}benzamide] returned an IC50 of 156 nM.

Take `CN1CCc2ccc(NC(=O)c3ccc(Nc4nc(-c5ccccc5)c5ccccc5n4)cc3)cc2C1` [N-(2-methyl-1,2,3,4-tetrahydroisoquinolin-7-yl)-4-[(4-phenylquinazolin-2-yl)amino]benzamide]: the IC50 came out at 5.8 nM.

`Cc1ccc(CN(C)Cc2ccccc2)cc1NC(=O)c1ccc(Nc2nc(C)c3ccccc3n2)cc1` [N-(2-methyl-5-{[methyl(phenylmethyl)amino]methyl}phenyl)-4-[(4-methylquinazolin-2-yl)amino]benzamide] returned an IC50 of 3.4 nM. Compared with the last molecule, the IC50 is about 1.7-fold lower.

In turn, `Cc1ccc(C(=O)NCCN(C)C)cc1NC(=O)c1ccc(Nc2nc(-c3ccccc3)c3ccccc3n2)cc1` [N-[2-(dimethylamino)ethyl]-4-methyl-3-[({4-[(4-phenylquinazolin-2-yl)amino]phenyl}carbonyl)amino]benzamide] registered an IC50 of 16.4 nM.

Regarding `Cc1ccc(-c2ccn[nH]2)cc1NC(=O)c1ccc(Nc2nc(-c3ccccc3)c3ccccc3n2)cc1` [N-[2-methyl-5-(1H-pyrazol-5-yl)phenyl]-4-[(4-phenylquinazolin-2-yl)amino]benzamide], 6.3 nM corresponded to half-maximal inhibition (IC50). Against the preceding molecule, the IC50 is about 2.6-fold lower.

In the case of `Cc1ccc(OCCN2CCOCC2)cc1NC(=O)c1ccc(Nc2nc(-c3ccccc3)c3ccccc3n2)cc1` [N-{2-methyl-5-[(2-morpholin-4-ylethyl)oxy]phenyl}-4-[(4-phenylquinazolin-2-yl)amino]benzamide], half-maximal inhibition (IC50) was put at 6.2 nM.

Take `CN(C)Cc1cccc(NC(=O)c2ccc(Nc3nc(-c4ccccc4)c4ccccc4n3)cc2)c1` [N-{3-[(dimethylamino)methyl]phenyl}-4-[(4-phenylquinazolin-2-yl)amino]benzamide]: inhibition was half-maximal at 6.1 nM (IC50).

Regarding `CCN1CCN(C(=O)c2ccc(C)c(NC(=O)c3ccc(Nc4nc(-c5ccccc5)c5ccccc5n4)cc3)c2)CC1` [N-{5-[(4-ethylpiperazin-1-yl)carbonyl]-2-methylphenyl}-4-[(4-phenylquinazolin-2-yl)amino]benzamide], the IC50 amounted to 23.9 nM.

Take `Cc1ccc(CN(C)C)cc1NC(=O)c1ccc(Nc2nc(-c3cccs3)c3ccccc3n2)cc1` [N-{5-[(dimethylamino)methyl]-2-methylphenyl}-4-{[4-(2-thienyl)quinazolin-2-yl]amino}benzamide]: the IC50 was determined as 21 nM.
